Experimental data published in patent publication US9174994B2, “Enhanced treatment regimens using mTor inhibitors” (INTELLIKINE LLC, priority 2011, dated 2015).

Experiment: Phase I clinical trial: treatment-emergent adverse events (patients, n (%)), dose limiting toxicity, MTD
Format: in vivo
Protocol: Safety, maximum tolerated dose (MTD), pharmacokinetics (PK) and preliminary antitumor activity were evaluated.
Pharmacodynamic (PD) endpoints were evaluated in surrogate (peripheral blood cells [PBCs], skin) and tumor tissues for the phosphorylation of TORC1-dependent markers (4EBP1/S6), and TORC2-dependent markers (AKT/PRAS40).

For `CC(C)n1nc(-c2ccc3oc(N)nc3c2)c2c(N)ncnc21` [compound A], the Oral discomfort (7 mg/week (N = 3)) was 0 (0%), the “Patients Reporting at Least One Related TEAE” value (from here on “Patients Reporting”) (7 mg/week (N = 3)) was 3 and the Pruritus (7 mg/week (N = 3)) was 0 (0%). For the same compound, the RASH (7 mg/week (N = 3)) was 0 (0%), the Rash (7 mg/week (N = 3)) was 0 (0%) and the Vomiting (7 mg/week (N = 3)) was 2 (67%). For the same compound, the WEAKNESS (7 mg/week (N = 3)) was 0 (0%), the Alanine aminotransferase increased (9 mg/3 W, QDx3d QW (N = 5)) was 0 (0%) and the Asthenia (9 mg/3 W, QDx3d QW (N = 5)) was 1 (20%). The Catheter site inflammation (9 mg/3 W, QDx3d QW (N = 5)) was 0 (0%), the Catheter site pain (9 mg/3 W, QDx3d QW (N = 5)) was 0 (0%) and the Decreased appetite (9 mg/3 W, QDx3d QW (N = 5)) was 0 (0%). The Diarrhoea (9 mg/3 W, QDx3d QW (N = 5)) was 1 (20%), the Dry skin (9 mg/3 W, QDx3d QW (N = 5)) was 1 (20%) and the Dysgeusia (9 mg/3 W, QDx3d QW (N = 5)) was 0 (0%). The Dyspnoea (9 mg/3 W, QDx3d QW (N = 5)) was 1 (20%), the Fatigue (9 mg/3 W, QDx3d QW (N = 5)) was 0 (0%) and the Headache (9 mg/3 W, QDx3d QW (N = 5)) was 0 (0%). For the same compound, the Hyperbilirubinaemia (9 mg/3 W, QDx3d QW (N = 5)) was 0 (0%), the Hypercholesterolaemia (9 mg/3 W, QDx3d QW (N = 5)) was 1 (20%) and the Hyperglycaemia (9 mg/3 W, QDx3d QW (N = 5)) was 1 (20%). The Hypertransaminasaemia (9 mg/3 W, QDx3d QW (N = 5)) was 1 (20%), the Hypertriglyceridaemia (9 mg/3 W, QDx3d QW (N = 5)) was 1 (20%) and the Hypomagnesaemia (9 mg/3 W, QDx3d QW (N = 5)) was 1 (20%). The Hypotension (9 mg/3 W, QDx3d QW (N = 5)) was 1 (20%), the Low fever (9 mg/3 W, QDx3d QW (N = 5)) was 0 (0%) and the Lymphopenia (9 mg/3 W, QDx3d QW (N = 5)) was 1 (20%). The Mucosal inflammation (9 mg/3 W, QDx3d QW (N = 5)) was 2 (40%), the Nausea (9 mg/3 W, QDx3d QW (N = 5)) was 2 (40%) and the Palmar-plantar erythrodysaesthesia syndrome (9 mg/3 W, QDx3d QW (N = 5)) was 1 (20%). For the same compound, the “Patients Reporting” value (9 mg/3 W, QDx3d QW (N = 5)) was 4 (80%), the Platelet count decreased (9 mg/3 W, QDx3d QW (N = 5)) was 0 (0%) and the Pruritus (9 mg/3 W, QDx3d QW (N = 5)) was 2 (40%). The Pyrexia (9 mg/3 W, QDx3d QW (N = 5)) was 0 (0%), the Rash (9 mg/3 W, QDx3d QW (N = 5)) was 3 (60%) and the Rash macular (9 mg/3 W, QDx3d QW (N = 5)) was 0 (0%). For the same compound, the Urinary tract infection (9 mg/3 W, QDx3d QW (N = 5)) was 1 (20%), the Vomiting (9 mg/3 W, QDx3d QW (N = 5)) was 2 (40%) and the Asthenia (9 mg/3 W, QDx3d QW (N = 5), 2nd Asthenia line) was 0 (0%). For the same compound, the Diarrhoea (10 mg/5 W, QDx5d QW (N = 3)) was 0 (0%), the “Patients Reporting” value (10 mg/5 W, QDx5d QW (N = 3)) was 1 (33%) and the Rash (10 mg/5 W, QDx5d QW (N = 3)) was 0 (0%). For the same compound, the Urine tract infection (10 mg/5 W, QDx5d QW (N = 3)) was 1 (33%), the Vomiting (10 mg/5 W, QDx5d QW (N = 3)) was 1 (33%) and the Nausea (10 mg/5 W, QDx5d QW (N = 3), 1st Nausea line) was 1 (33%). The Nausea (10 mg/5 W, QDx5d QW (N = 3), 2nd Nausea line) was 0 (0%), the ASTHENIA (10 mg/week (N = 3)) was 0 (0%) and the ATHENIA (10 mg/week (N = 3)) was 0 (0%). For the same compound, the Alanine aminotransferase increased (10 mg/week (N = 3)) was 0 (0%), the Aspartate aminotransferase increased (10 mg/week (N = 3)) was 1 (33%) and the Asthenia (10 mg/week (N = 3)) was 0 (0%). For the same compound, the Blood creatinine increased (10 mg/week (N = 3)) was 0 (0%), the Blood triglycerides increased (10 mg/week (N = 3)) was 0 (0%) and the DIARRHEA (10 mg/week (N = 3)) was 0 (0%). The Decreased appetite (10 mg/week (N = 3)) was 0 (0%), the Diarrhoea (10 mg/week (N = 3)) was 0 (0%) and the Dysgeusia (10 mg/week (N = 3)) was 0 (0%). The Dyspepsia (10 mg/week (N = 3)) was 0 (0%), the HYPERGLYCEMIA (10 mg/week (N = 3)) was 0 (0%) and the Hyperglycaemia (10 mg/week (N = 3)) was 1 (33%). For the same compound, the Lymphopenia (10 mg/week (N = 3)) was 0 (0%), the Malaise (10 mg/week (N = 3)) was 0 (0%) and the Mucosal inflammation (10 mg/week (N = 3)) was 0(0%). The Muscle spasms (10 mg/week (N = 3)) was 0 (0%), the Nausea (10 mg/week (N = 3)) was 2 (67%) and the Oral discomfort (10 mg/week (N = 3)) was 1 (33%). For the same compound, the “Patients Reporting” value (10 mg/week (N = 3)) was 2 (67%), the Pruritus (10 mg/week (N = 3)) was 0 (0%) and the RASH (10 mg/week (N = 3)) was 0 (0%). For the same compound, the Rash (10 mg/week (N = 3)) was 0 (0%), the Vomiting (10 mg/week (N = 3)) was 1 (33%) and the WEAKNESS (10 mg/week (N = 3)) was 0 (0%). For the same compound, the Alanine aminotransferase increased (12 mg/3 W, QDx3d QW (N = 3)) was 0 (0%), the Asthenia (12 mg/3 W, QDx3d QW (N = 3)) was 1 (33%) and the Catheter site inflammation (12 mg/3 W, QDx3d QW (N = 3)) was 1 (33%). For the same compound, the Catheter site pain (12 mg/3 W, QDx3d QW (N = 3)) was 1 (33%), the Decreased appetite (12 mg/3 W, QDx3d QW (N = 3)) was 1 (33%) and the Diarrhoea (12 mg/3 W, QDx3d QW (N = 3)) was 0 (0%). The Dry skin (12 mg/3 W, QDx3d QW (N = 3)) was 0 (0%), the Dysgeusia (12 mg/3 W, QDx3d QW (N = 3)) was 1 (33%) and the Dyspnoea (12 mg/3 W, QDx3d QW (N = 3)) was 0 (0%). The Fatigue (12 mg/3 W, QDx3d QW (N = 3)) was 0 (0%), the Headache (12 mg/3 W, QDx3d QW (N = 3)) was 0 (0%) and the Hyperbilirubinaemia (12 mg/3 W, QDx3d QW (N = 3)) was 0 (0%). The Hypercholesterolaemia (12 mg/3 W, QDx3d QW (N = 3)) was 0 (0%), the Hyperglycaemia (12 mg/3 W, QDx3d QW (N = 3)) was 2 (67%) and the Hypertransaminasaemia (12 mg/3 W, QDx3d QW (N = 3)) was 0 (0%). The Hypertriglyceridaemia (12 mg/3 W, QDx3d QW (N = 3)) was 0 (0%), the Hypomagnesaemia (12 mg/3 W, QDx3d QW (N = 3)) was 0 (0%) and the Hypotension (12 mg/3 W, QDx3d QW (N = 3)) was 0 (0%). The Low fever (12 mg/3 W, QDx3d QW (N = 3)) was 0 (0%), the Lymphopenia (12 mg/3 W, QDx3d QW (N = 3)) was 0 (0%) and the Mucosal inflammation (12 mg/3 W, QDx3d QW (N = 3)) was 1 (33%). For the same compound, the Nausea (12 mg/3 W, QDx3d QW (N = 3)) was 2 (67%), the Palmar-plantar erythrodysaesthesia syndrome (12 mg/3 W, QDx3d QW (N = 3)) was 0 (0%) and the “Patients Reporting” value (12 mg/3 W, QDx3d QW (N = 3)) was 2 (67%). For the same compound, the Platelet count decreased (12 mg/3 W, QDx3d QW (N = 3)) was 0 (0%), the Pruritus (12 mg/3 W, QDx3d QW (N = 3)) was 1 (33%) and the Pyrexia (12 mg/3 W, QDx3d QW (N = 3)) was 0 (0%). The Rash (12 mg/3 W, QDx3d QW (N = 3)) was 0 (0%), the Rash macular (12 mg/3 W, QDx3d QW (N = 3)) was 1 (33%) and the Urinary tract infection (12 mg/3 W, QDx3d QW (N = 3)) was 0 (0%). For the same compound, the Vomiting (12 mg/3 W, QDx3d QW (N = 3)) was 0 (0%), the Asthenia (12 mg/3 W, QDx3d QW (N = 3), 2nd Asthenia line) was 0 (0%) and the ASTHENIA (15 mg/week (N = 3)) was 0 (0%). The ATHENIA (15 mg/week (N = 3)) was 0 (0%), the Alanine aminotransferase increased (15 mg/week (N = 3)) was 0 (0%) and the Aspartate aminotransferase increased (15 mg/week (N = 3)) was 0 (0%).
